Experimental data: patent US11261175B2 (priority 2017, dated 2022)

How the values were obtained:
Type in all cases: cell-based
[1] = tested on: JFH5a-Rluc-ad34 virus (HCV GT-2a); experiment: Anti-HCV activity using HCVcc (JFH5a-Rluc-ad34 virus) in Huh 7.5.1 cells, Renilla luciferase readout; conditions: Hepatitis C virus, GT2A, Huh-7.5.1, 72 h, read-out: HCV wt. GT-2a
Outline: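 Huh 7.5.1 cells were inoculated with JFH5a-Rluc-ad34, a JFH1-derived virus with adaptive E2/p7 mutations, for 4 h before serially diluted compound was added. Intracellular Renilla luciferase was read after three days and normalized to mock-treated controls.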

[2] = tested on: HCV genotype 1b replicon with NS5A L31V mutation; experiment: Transiently transfected assay of genotype 1b resistance mutant RNA L31V; conditions: Hepatitis C virus, Huh-7.5.1, 72 h, read-out: HCV Mutation L31V
Outline: (§1)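 Huh7.5.1 cells were electroporated with in vitro-transcribed, ScaI-linearized replicon RNAs carrying the Daclatasvir-resistance substitutions, then seeded 4 h later into DMEM with serially diluted compound. After 3 days, intracellular luciferase activity was read and normalized to mock-treated cells.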

[3] = tested on: HCV replicon S52-Feo (genotype 3a); experiment: Anti-HCV activity using HCV replicon S52-Feo (genotype 3a) in Huh 7.5.1 cells, luciferase readout; conditions: Hepatitis C virus, 72 h; Huh 7.5.1 cells with S52-Feo replicon, 3 days, firefly luciferase; read-out: HCV wt. GT-3a
[4] = tested on: HCV genotype 1b replicon with NS5A Y93H mutation; experiment: Transiently transfected assay of genotype 1b resistance mutant RNA Y93H; conditions: Hepatitis C virus, Huh-7.5.1, 72 h, read-out: HCV Mutation Y93H
Outline: as §1

[5] = tested on: HCV replicon NK5.1-Gluc (genotype 1b); experiment: Anti-HCV activity using HCV replicon NK5.1-Gluc (genotype 1b) in Huh 7.5.1 cells, luciferase readout; conditions: Hepatitis C virus, 72 h; Huh 7.5.1 cells with NK5.1-Gluc replicon, 3 days, Gaussia luciferase; read-out: HCV wt. GT-1b
[6] = tested on: HCV genotype 1b replicon with NS5A L31V+Y93H (double mutant); experiment: Transiently transfected assay of genotype 1b resistance mutant RNA L31V+Y93H (double mutant); conditions: Hepatitis C virus, Huh-7.5.1, 72 h, read-out: HCV Mutation L31V + Y93H
Outline: as §1

| SMILES | EC50 [1] | EC50 [2] | EC50 [3] | EC50 [4] | EC50 [5] | EC50 [6] |
| --- | --- | --- | --- | --- | --- | --- |
| CCCCC1(CCCC)c2cc(NC(=O)[C@@H]3C[C@H](O)CN3C(=O)[C@H](NC(=O)OC)c3ccccc3)ccc2-c2ccc(NC(=O)[C@@H]3C[C@H](O)CN3C(=O)[C@H](NC(=O)OC)c3ccccc3)cc21 [Example 35, dimethyl (1R,1′R)-2,2′-((3S,3′S,5S,5′S)-5,5′-(9,9-dibutyl-9H-fluorene-2,7-diyl)bis(azanediyl)bis(oxomethylene)bis(3-hydroxypyrrolidine-5,1-diyl))bis(2-oxo-1-phenylethane-2,1-diyl)dicarbamate] | 1 to 100 nM | 0.001 to 0.01 nM | 0.01 to 0.1 nM | 0.1 to 1 nM | 0.01 to 0.1 nM | 1 to 100 nM |
| CCCCC1(CCCC)c2cc(NC(=O)[C@@H]3C[C@H](COC)CN3C(=O)[C@H](NC(=O)OC)c3ccccc3)ccc2-c2ccc(NC(=O)[C@@H]3C[C@H](COC)CN3C(=O)[C@H](NC(=O)OC)c3ccccc3)cc21 [Example 36, dimethyl (1R,1′R)-2,2′-((3S,3′S,5S,5′S)-5,5′-(9,9-dibutyl-9H-fluorene-2,7-diyl)bis(azanediyl)bis(oxomethylene)bis(3-(methoxymethyl)pyrrolidine-5,1-diyl))bis(2-oxo-1-phenylethane-2,1-diyl)dicarbamate] | 0.1 to 1 nM | 0.001 to 0.01 nM | 0.01 to 0.1 nM | 0.001 to 0.01 nM | 0.001 to 0.01 nM | 0.1 to 1 nM |
| CCCCC1(CCCC)c2cc(NC(=O)[C@@H]3CCCN3C(=O)[C@H](NC(=O)OC)c3ccccc3)ccc2-c2ccc(NC(=O)[C@@H]3C[C@H](COC)CN3C(=O)[C@H](NC(=O)OC)c3ccccc3)cc21 [Example 37, methyl ((R)-2-((2S,4S)-2-((9,9-dibutyl-7-((S)-1-((R)-2-((methoxycarbonyl)amino)-2-phenylacetyl)pyrrolidine-2-carboxyamido)-9H-fluorene-2-yl)carbamoyl)-4-(methoxymethyl)pyrrolidine-1-yl)-2-oxo-1-phenylethyl)carbamate] | 0.1 to 1 nM | 0.001 to 0.01 nM | 0.001 to 0.01 nM | 0.01 to 0.1 nM | 0.001 to 0.01 nM | 1 to 100 nM |
| CCCCC1(CCCC)c2cc(NC(=O)[C@@H]3C[C@@H](O)CN3C(=O)[C@H](NC(=O)OC)c3ccccc3)ccc2-c2ccc(NC(=O)[C@@H]3C[C@H](COC)CN3C(=O)[C@H](NC(=O)OC)c3ccccc3)cc21 [Example 38, methyl ((R)-2-((2S,4S)-2-((9,9-dibutyl-7-((2S,4R)-4-hydroxy-1-((R)-2-((methoxycarbonyl)amino)-2-phenylacetyl)pyrrolidine-2-carboxyamido)-9H-fluorene-2-yl)carbamoyl)-4-(methoxymethyl)pyrrolidine-1-yl)-2-oxo-1-phenylethyl)carbamate] | 0.1 to 1 nM | 0.001 to 0.01 nM | 0.01 to 0.1 nM | 0.001 to 0.01 nM | 0.01 to 0.1 nM | 0.01 to 0.1 nM |
| CCCCC1(CCCC)c2cc(NC(=O)[C@@H]3C[C@@H](OC)CN3C(=O)[C@H](NC(=O)OC)c3ccccc3)ccc2-c2ccc(NC(=O)[C@@H]3C[C@@H](OC)CN3C(=O)[C@H](NC(=O)OC)c3ccccc3)cc21 [Example 39, dimethyl (1R,1′R)-2,2′-((3R,3′R,5S,5′S)-5,5′-(9,9-dibutyl-9H-fluorene-2,7-diyl)bis(azanediyl)bis(oxomethylene)bis(3-methoxypyrrolidine-5,1-diyl))bis(2-oxo-1-phenylethane-2,1-diyl)dicarbamate] | 1 to 100 nM | 0.001 to 0.01 nM | 0.1 to 1 nM | 0.01 to 0.1 nM | 0.01 to 0.1 nM | 1 to 100 nM |
| CCCCC1(CCCC)c2cc(NC(=O)[C@@H]3C[C@H](COC)CN3C(=O)[C@H](NC(=O)OC)c3ccccc3)ccc2-c2ccc(-c3cnc([C@@H]4C[C@H](COC)CN4C(=O)[C@@H](NC(=O)OC)C(C)C)[nH]3)cc21 [Example 40, methyl ((S)-1-((2S,4S)-2-(5-(9,9-dibutyl-7-((2S,4S)-1-((R)-2-((methoxycarbonyl)amino)-2-phenylacetyl)-4-(methoxymethyl)pyrrolidine-2-carboxyamido)-9H-fluorene-2-yl)-1H-imidazole-2-yl)-4-(methoxymethyl)pyrrolidine-1-yl)-3-methyl-1-oxobutane-2-yl)carbamate] | 0.01 to 0.1 nM | 0.001 to 0.01 nM | 0.1 to 1 nM | 0.01 to 0.1 nM | 0.001 to 0.01 nM | 1 to 100 nM |
| CCCCC1(CCCC)c2cc(NC(=O)[C@@H]3CCCN3C(=O)[C@H](NC(=O)OC)c3ccccc3)ccc2-c2ccc(-c3cnc([C@@H]4C[C@H](COC)CN4C(=O)[C@@H](NC(=O)OC)C(C)C)[nH]3)cc21 [Example 41, methyl ((S)-1-((2S,4S)-2-(5-(9,9-dibutyl-7-((S)-1-((R)-2-((methoxycarbonyl)amino)-2-phenylacetyl)pyrrolidine-2-carboxyamido)-9H-fluorene-2-yl)-1H-imidazole-2-yl)-4-(methoxymethyl)pyrrolidine-1-yl)-3-methyl-1-oxobutane-2-yl)carbamate] | 0.01 to 0.1 nM | 0.001 to 0.01 nM | 0.1 to 1 nM | 0.01 to 0.1 nM | 0.01 to 0.1 nM | 1 to 100 nM |
| CCCCC1(CCCC)c2cc(NC(=O)[C@@H]3C[C@H](COC)CN3C(=O)[C@H](NC(=O)OC)c3ccccc3)ccc2-c2ccc(-c3cnc([C@@H]4CCCN4C(=O)[C@@H](NC(=O)OC)C(C)C)[nH]3)cc21 [Example 42, methyl ((S)-1-((S)-2-(5-(9,9-dibutyl-7-((2S,4S)-1-((R)-2-((methoxycarbonyl)amino)-2-phenylacetyl)-4-(methoxymethyl)pyrrolidine-2-carboxyamido)-9H-fluorene-2-yl)-1H-imidazole-2-yl)pyrrolidine-1-yl)-3-methyl-1-oxobutane-2-yl)carbamate] | 0.1 to 1 nM | 0.001 to 0.01 nM | 0.1 to 1 nM | 0.01 to 0.1 nM | 0.01 to 0.1 nM | 1 to 100 nM |
